According to US20030175961A1, “Immortal micorvascular endothelial cells and uses thereof” (priority 2002, published 2003):
Entries after “also recorded” stand apart in the source; their conditions may differ.

Assays:
[1] = tested on: MMP activities; experiment: Fluorescent substrate assay (FSA) of MMP activity in HDMEC conditioned media; type: biochemical, human; details: concentrated conditioned media from HDMEC cultures +/- PMA; Knight substrate
Description: Replicate hTERT(+)HDMECs (PD30, 60, 90) and primary controls (PD5, PD25) are seeded at equal densities, grown to confluence and switched to EBM media (Clonetics, San Diego, Calif.) containing growth factors, but no serum, for 72 hrs. Media is collected and total protein measured (Pierce, Rockford, Ill.). […] In addition, conditioned media are analyzed by a fluorescent substrate assay (FSA).
The FSA is an assay system for MMP activities based on recently-developed fluorogenic substrates that utilize 7-methoxycoumarin (MOC)-labeled MMP-specific small peptides (“Knight” substrate; Knight CG. Fluorimetric Assays of Proteolytic Enzymes. Met Enzymol 1995, 248:18-34). Release of MOC from the 2,4-dinitrophenyl-quenched peptide by active MMPs results in proportional increases in fluorescence with time. Activities of recombinant MMP-2 and MMP-9 using the Knight substrate were readily detectable and yielded linear initial reaction rates over 10 minutes. Calculated initial rates of hydrolysis of the Knight substrate (4 uM) by MMP-2 (1.2 nM), MMP-9 (1.2 nM), and MMP-2 (0.6 uM) plus MMP-9 (0.6 uM) were 571.1 units/min, 208.2 units/min, and 242 units/min, respectively. […]

[2] = tested on: GNMEC1 (eGFP-labeled hTERT(+)HDMEC); experiment: In vitro angiogenic web formation on Matrigel; type: cell-based, human; details: GNMEC1 pretreated with COX antagonist, then plated on Matrigel; FIG. 17
Description: Tubule formation on Matrigel. Matrigel (Collaborative Biomedical Products) was placed on ice and allowed to thaw overnight in a darkened cold room or refrigerator. Three hundred fifty microliters of the Matrigel was layered onto a pre-chilled well of a 6-well plate and then placed in an incubator at 37° C. for one half hour for the Matrigel to solidify. About 350,000 cells in M199/15% FBS/10 U/ml heparin/16 ig/ml ECGF were then seeded onto the matrix and allowed to incubate at 37° C., 5% CO2 environment. […] To show the utility of this in vitro system, we pretreated GNMEC1 with two different cyclo-oxygenase (COX) antagonists which are known to block angiogenesis (Jones et al. 1999 Nature Medicine 5:12;1418-23) and then plated the cells on Matrigel. […] The “tubulogenic process” can be followed and quantified utilizing cell lines such as GNMEC1 and digitally-converted fluorescence microscopic images of replicate cultures. Commercially available programs in current use with other cellular applications which maybe used to perform this process include MetaMorph® (Universal Imaging Corporation®, West Chester, Pa.) and the high-throughput imaging systems of Cellomics, Inc. (Pittsburgh, Pa.).

[3] = tested on: human microvessel formation by GNMEC1; experiment: In vivo human microvascular remodeling assay, GNMEC1 in Matrigel implants in SCID mice; set-up: species or system human cells in SCID mice; details: agents mixed with GNMEC1 in Matrigel before implantation in SCID mice; FIG. 24-27; preliminary studies
Description: (§1) SCID mice were implanted with Matrigel mixtures containing either b-FGF, primary HDMEC (PD1O) or hTERT(+)HDMEC via subcutaneous injection on ventral thoracic surfaces. Implants were harvested at 2 weeks, sectioned and stained with H&E and anti-human basement membrane Type 4 collagen. […] The presence of red blood cells within these human vessels indicates host vasculature has anastamosed with the human vessels creating murine-human chimeric microvasculature.
All agents were incorporated into Matrigel by mixing cells and agents together before implantation. The effect of continuous exposure at different concentrations was not performed but would be likely to greatly accentuate the results shown in these preliminary studies.

[4] = tested on: primary normal human keratinocyte (NHK) cultures; experiment: Fluorescent substrate assay (FSA) of net MMP activity in keratinocyte conditioned media; type: cell-based; details: conditioned media of PMA-treated NHK, only after APMA activation
Description: The FSA is an assay system for MMP activities based on recently-developed fluorogenic substrates that utilize 7-methoxycoumarin (MOC)-labeled MMP-specific small peptides (“Knight” substrate; Knight CG. Fluorimetric Assays of Proteolytic Enzymes. Met Enzymol 1995, 248:18-34). Release of MOC from the 2,4-dinitrophenyl-quenched peptide by active MMPs results in proportional increases in fluorescence with time. Activities of recombinant MMP-2 and MMP-9 using the Knight substrate were readily detectable and yielded linear initial reaction rates over 10 minutes. Calculated initial rates of hydrolysis of the Knight substrate (4 uM) by MMP-2 (1.2 nM), MMP-9 (1.2 nM), and MMP-2 (0.6 uM) plus MMP-9 (0.6 uM) were 571.1 units/min, 208.2 units/min, and 242 units/min, respectively.
Reverse zymography confirmed the presence of TIMPs.

[5] = tested on: HDMEC-GT derived microvessels; experiment: SCID mice xenografting of HDMEC-GT in Matrigel, human vessel quantification; type: in vivo, human cells in SCID mice; details: for human vessel density (human type IV collagen micromorphometry): two weeks after implantation, VEGF 2 μg/ml or FGF-2 150 ng/ml mixed with HDMEC-GT and Matrigel, only FGF-2 significant (p<0.01)
Description: This procedure is based on a modification of the mouse angiogenesis model previously described^41. Two-three week old male or female SCID mice (Taconic, Germantown, N.Y.) were used as hosts for all implants. Primary HDMEC and HDMEC-T were harvested, washed twice and re-suspended in serum-free EGM-2 basal medium at the concentration of 1×10^5/μl. Ten μl of cells were mixed with 0.5 ml of Matrigel on ice and the mixture was implanted in the ventral midline thoracic tissue of each mouse by subcutaneous injection using a #25 needle. Up to three separate injections could be performed on a single mouse. For some experiments, recombinant human VEGF165 (2 μg/ml) (R&D systems, Minneapolis, Minn.) or bovine FGF-2 (150 ng/ml) (R&D systems, Minneapolis, Minn.) were added to the mixture. When tumor cells (HT1080 and 293, ATCC) or primary human dermal fibroblasts 38 were injected, the procedure remained the same except basal DMEM medium replaced EGM-2. 41. Passaniti, A. et al. A simple, quantitative method for assessing angiogenesis and antiangiogenic agents using reconstituted basement membrane, heparin, and fibroblast growth factor. Lab. Invest. 67, 519-528 (1992).
Matrigel implants were removed at 1, 2, 4 and 6 wk following xenografting, fixed in 10% buffered formalin overnight, paraffin-embedded and sectioned. H&E stained thin sections were prepared at Pan-insular Histopathology laboratory (Los Gatos, Calif.). For immunofluorescence, thin sections were deparaffinized and antigens retrieved in 10 mM citric acid (pH 6.0) by microwaving sections for 2×7 min. […] For micromorphometry, 5 separate 20×fields were randomly selected per tissue section and the number of annular structures were counted and averaged. […] Passaniti, A. et al. A simple, quantitative method for assessing angiogenesis and antiangiogenic agents using reconstituted basement membrane, heparin, and fibroblast growth factor. […]
For digital analysis of eGFP fluorescence images we used a novel algorithm (Moss Filter™) to determine the total amount of vascularization in each implant section. […]

[6] = tested on: host murine microvasculature; experiment: Host vessel invasion of Matrigel implants in SCID mice; type: in vivo; details: FGF-2 alone in Matrigel, no human EC
Description: as §1
This procedure is based on a modification of the mouse angiogenesis model previously described^41. Two-three week old male or female SCID mice (Taconic, Germantown, N.Y.) were used as hosts for all implants. […] Passaniti, A. et al. A simple, quantitative method for assessing angiogenesis and antiangiogenic agents using reconstituted basement membrane, heparin, and fibroblast growth factor. […]
Matrigel implants were removed at 1, 2, 4 and 6 wk following xenografting, fixed in 10% buffered formalin overnight, paraffin-embedded and sectioned. […] For micromorphometry, 5 separate 20×fields were randomly selected per tissue section and the number of annular structures were counted and averaged. […] Passaniti, A. et al. A simple, quantitative method for assessing angiogenesis and antiangiogenic agents using reconstituted basement membrane, heparin, and fibroblast growth factor. […]

[7] = tested on: hTERT(+) HDMEC (TERT-1); experiment: Cell surface marker expression after TNF stimulation, TERT-1; type: cell-based, human; details: TNFá stimulation for 16 hr
Description: (§2) The hTERT(+) HDMEC (TERT-1) line expressed uniformly high PCAM but relatively low levels of ICAM-1 (30%), VCAM-1 (1.3%) and CD34 (19.5%) at baseline. […] The latter result was consistent with experiments performed in support of the present invention that studied the same characteristics of primary HDMEC CD34 expression.
(§3) The antibodies used for flow Cytometry were anti-PECAM (Becton Dickinson), ICAM (Pharmingen), and Apo2.7 (Immunotech). […] For apo 2.7 assay, the cells were treated with TNFá+actinomycin D (AMD), LPS+cycloheximide (CHX), or UV light 16 hours prior to the experiments. One group of cells were serum starved for 40 hours. The cells are incubated with either PE conjugated primary antibody or un-conjugated primary antibody+PE conjugated secondary antibody at 37° C. The data was collected and analyzed with CellQuest (Becton Dickinson) or Coulter EPICS cell sorter.

[8] = tested on: primary HDMEC (control); experiment: Cell surface marker expression after TNF stimulation, primary HDMEC; type: cell-based, human; details: TNFá stimulation for 16 hr
Description: as §2, §3

Question: `c1cnc2c(c1)ccc1cccnc12` [1, 10 phenanthraline, reference compound] was tested. Which “blocking of MMP activities” value [1] did it give?
Answer: Its value is “completely blocked”.

Question: How did the “angiogenic web blockade (dose-response curve)” value [2] turn out when `CS(=O)(=O)Nc1ccc([N+](=O)[O-])cc1OC1CCCCC1` [NS-398] was run?
Answer: The value was “angiogenic web blockade”.

Question: Which results are given for `CCCCCCCCCCCCCC(=O)O[C@@H]1[C@@H](C)[C@@]2(O)[C@@H](C=C(CO)C[C@]3(O)C(=O)C(C)=C[C@@H]23)[C@@H]2C(C)(C)[C@]12OC(C)=O` [PMA, reference compound]?
Answer: effect on human microvessel formation in vivo (microvessel density, anti-human Type 4 collagen immuno-micromorphometry) [3]: angiostatic qualities; net MMP activity [4]: 10.1 units/min/ug total protein

Question: For `COc1ccc2c(c1)c(CC(=O)O)c(C)n2C(=O)c1ccc(Cl)cc1` [indomethacin], which “angiogenic web blockade (dose-response curve)” value [2] is on record?
Answer: The value was “angiogenic web blockade”.

Question: Which “human vessel density (human type IV collagen micromorphometry)” value [5] does the source give for “FGF-2: bovine FGF-2 (R&D systems), pro-angiogenic factor” here?
Answer: The value was “statistically increased human vessel density”.

Question: What about the “effect on human microvessel formation in vivo (microvessel density, anti-human Type 4 collagen immuno-micromorphometry)” value [3] of the same molecule?
Answer: The value was “greatest stimulatory effect”.

Question: What about the “host vessel invasion of Matrigel implants” value [6] of the same molecule?
Answer: The value was “marked host vessel invasion; also recorded: stimulated”.

Question: And the “host vessel invasion of Matrigel implants” value ([6]; listed as b-FGF)?
Answer: Its value is “host microvasculature is readily apparent invading”.

Question: What does the source list for TNFá?
Answer: VCAM-1 expression ([7]; TERT-1 (baseline 1.3%)): 41%; CD34 expression ([7]; TERT-1 (baseline 19.5%)): 1.6%; ICAM-1 expression ([7]; TERT-1 (baseline 30%)): > 99%; ICAM-1 expression ([8]; control primary cells): > 99%; VCAM-1 expression ([8]; control primary cells): 41%; CD34 expression ([8]; primary cells): 45%

Question: For VEGF, which “increased vessel density relative to controls” value ([5]; VEGF mixed with HDMEC-GT and Matrigel, two weeks, not statistically significant) is on record?
Answer: The value was 20-30%.

Question: And the “human vessel density (human type IV collagen micromorphometry)” value [5]?
Answer: Its value is “increased vessel density”.

Question: “rTIMP-1: Tissue Inhibitor of Matrix metalloProteinases 1” was tested. Which “blocking of MMP activities” value [1] did it give?
Answer: Its value is “partially blocked”.
